Results on 19 molecules are retold here after PubChem BioAssay (NCI).

Each structure is given as a SMILES string.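 All cell lines were grown in 96-well plates and treated with compound for 48 hours. Here, GI50 denotes the concentration required for 50% inhibition of growth. TGI marks complete inhibition of growth.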

Some test systems named below: A498 renal; HCC-2998 colon; HL-60(TB) leukemia; HOP-92 NSCLC; M14 melanoma; MDA-MB-231 breast; NCI/ADR-RES ovarian; OVCAR-8 ovarian; RPMI-8226 leukemia; SR leukemia.
Common to all, as to test: NCI-60 cell line screen, 48 h

For `Cc1ccc(N2C(=O)C3c4[nH]c5ccccc5c4C4CCC(C(C)(C)C)CC4C3C2=O)cc1` (stereo not drawn), the TGI with A498 renal was 31.3 µM; in the assay with HCC-2998 colon, 56.1 µM; in the assay on HL-60(TB) leukemia, greater than 74.9 µM; with HOP-92 NSCLC, 32.9 µM; in the assay on M14 melanoma, 35.6 µM; in the assay on MDA-MB-231 breast it was 15.8 µM. The TGI in the assay on NCI/ADR-RES ovarian is 31.8 µM; in the assay with OVCAR-8 ovarian, 20.9 µM; with RPMI-8226 leukemia, greater than 41.5 µM; in the assay with SR leukemia it was 16.6 µM.

Turning to `COc1cc(OC)c(OC)cc1/C=N/N=C(\N)NO`, the TGI with A498 renal, with HCC-2998 colon, in the assay with HL-60(TB) leukemia, in the assay on HOP-92 NSCLC, with M14 melanoma and in the assay on MDA-MB-231 breast was greater than 100 µM each time. Besides, the TGI with NCI/ADR-RES ovarian, with OVCAR-8 ovarian, with RPMI-8226 leukemia and in the assay with SR leukemia was greater than 100 µM throughout.

As for `CC1C(c2ccccc2)OP(=O)(OC(C#N)c2ccccc2)N1C` (stereo not drawn), the TGI in the assay on A498 renal, in the assay on HCC-2998 colon, in the assay with HL-60(TB) leukemia, in the assay with HOP-92 NSCLC, in the assay with M14 melanoma and in the assay on MDA-MB-231 breast was greater than 100 µM each time. Besides, the TGI with NCI/ADR-RES ovarian, with OVCAR-8 ovarian, with RPMI-8226 leukemia and in the assay on SR leukemia was greater than 100 µM in each case.

On to `N#Cc1c(N)oc(-c2cccc([N+](=O)[O-])c2)c1C#N`, for which the TGI is 61.7 µM in the assay on A498 renal; 33.6 µM with HCC-2998 colon; 65.1 µM with HL-60(TB) leukemia; 37.7 µM in the assay with HOP-92 NSCLC; greater than 100 µM with M14 melanoma; greater than 100 µM in the assay with MDA-MB-231 breast. In addition, the TGI was greater than 100 µM in the assay on NCI/ADR-RES ovarian, 44.1 µM with OVCAR-8 ovarian, 59.8 µM with RPMI-8226 leukemia and greater than 100 µM in the assay on SR leukemia.

As for `N#C/C(=C\c1ccccc1)C(=O)Nc1nnc(-c2ccccc2)o1`, the TGI in the assay on A498 renal is 72.7 µM; in the assay on HCC-2998 colon, greater than 100 µM; with HL-60(TB) leukemia, 40.9 µM; in the assay on HOP-92 NSCLC it was greater than 100 µM; in the assay with M14 melanoma, greater than 100 µM; in the assay with MDA-MB-231 breast, greater than 100 µM. The TGI in the assay on NCI/ADR-RES ovarian was greater than 100 µM; in the assay with OVCAR-8 ovarian, greater than 100 µM; in the assay with RPMI-8226 leukemia, 62.6 µM; with SR leukemia, 93.2 µM.

With `COC(=O)[C@@H]1CN(C(=O)CCc2ccccc2)C(=O)N1C(=O)OCc1ccccc1`, the TGI in the assay with A498 renal, with HCC-2998 colon, with HL-60(TB) leukemia, in the assay with HOP-92 NSCLC, with M14 melanoma and in the assay on MDA-MB-231 breast was greater than 100 µM throughout. The TGI in the assay with NCI/ADR-RES ovarian, in the assay with OVCAR-8 ovarian, with RPMI-8226 leukemia and in the assay with SR leukemia was greater than 100 µM throughout.

Take `CC12Nc3ccccc3N1C(=O)c1ccccc12` (stereo not drawn): the TGI in the assay with A498 renal, in the assay on HCC-2998 colon, with HL-60(TB) leukemia, in the assay on HOP-92 NSCLC, in the assay on M14 melanoma and with MDA-MB-231 breast was greater than 100 µM in each case. The TGI with NCI/ADR-RES ovarian, with OVCAR-8 ovarian, with RPMI-8226 leukemia and in the assay on SR leukemia was greater than 100 µM throughout.

For `CCCCCC/C=C\CCCCCCCCCc1cccc(O)c1C(=O)O`, the TGI with A498 renal, in the assay with HCC-2998 colon, in the assay on HL-60(TB) leukemia, with HOP-92 NSCLC, with M14 melanoma and with MDA-MB-231 breast was greater than 100 µM throughout. The TGI with NCI/ADR-RES ovarian, in the assay on OVCAR-8 ovarian, with RPMI-8226 leukemia and in the assay with SR leukemia was greater than 100 µM throughout.

Take `COc1ccc(NC(=O)CC(=O)N2N=C(C)C(N=Nc3ccc(S(=O)(=O)c4ccc(N=NC5C(=O)N(C(=O)CC(=O)Nc6ccc(OC)cc6)N=C5C)cc4)cc3)C2=O)cc1` (stereo not drawn): the TGI in the assay on A498 renal, with HCC-2998 colon, with HL-60(TB) leukemia, with HOP-92 NSCLC, in the assay on M14 melanoma and in the assay on MDA-MB-231 breast was greater than 100 µM each time. Moreover, the TGI in the assay on NCI/ADR-RES ovarian, with OVCAR-8 ovarian, in the assay with RPMI-8226 leukemia and in the assay with SR leukemia was greater than 100 µM throughout.

With `Cc1cc(C)c(C2=NOC(c3ccccc3)(c3cc(=O)n(-c4ccccc4)s3)O2)c(C)c1` (stereo not drawn), the TGI was greater than 100 µM with A498 renal; greater than 100 µM in the assay with HCC-2998 colon; greater than 100 µM with HL-60(TB) leukemia; 62.5 µM in the assay with HOP-92 NSCLC; 76.8 µM in the assay on M14 melanoma; 95 µM in the assay with MDA-MB-231 breast. Further, the TGI is 68.1 µM with NCI/ADR-RES ovarian, 36.5 µM with OVCAR-8 ovarian, greater than 100 µM with RPMI-8226 leukemia and greater than 100 µM with SR leukemia.

`C[C@@H]1CC[C@H]2C(COCCOCC3=C(C(F)(F)F)O[C@@H]4O[C@@]5(C)CC[C@H]6[C@H](C)CC[C@@H]3[C@@]46OO5)=C(C(F)(F)F)O[C@@H]3O[C@@]4(C)CC[C@@H]1[C@]32OO4`: the GI50 in the assay on A498 renal is greater than 20.2 µM; in the assay on HCC-2998 colon, greater than 11.9 µM; in the assay with HL-60(TB) leukemia it was less than 0.0213 µM; in the assay with HOP-92 NSCLC, 0.0679 µM; in the assay with M14 melanoma it was 0.557 µM; with MDA-MB-231 breast it was 1.97 µM. Moreover, the GI50 in the assay with NCI/ADR-RES ovarian was 5.57 µM; in the assay on OVCAR-8 ovarian it was less than 0.0261 µM; with RPMI-8226 leukemia, less than 0.0139 µM; in the assay on SR leukemia, 0.0116 µM. The TGI in the assay on A498 renal is greater than 96.9 µM; in the assay on HCC-2998 colon, greater than 100 µM; in the assay with HOP-92 NSCLC it was greater than 100 µM; in the assay on M14 melanoma it was greater than 100 µM; in the assay with MDA-MB-231 breast, greater than 15.8 µM; in the assay on NCI/ADR-RES ovarian, greater than 100 µM. In addition, the TGI with OVCAR-8 ovarian and in the assay with SR leukemia was greater than 100 µM each time.

`COc1nc2c(c(=O)n1C)N(C(C)=O)C1C(N2)OCC(OC(C)=O)C1OC(C)=O` (stereo not drawn): the TGI in the assay on A498 renal, in the assay on HCC-2998 colon, in the assay on HL-60(TB) leukemia, in the assay on HOP-92 NSCLC, in the assay with M14 melanoma and in the assay with MDA-MB-231 breast was greater than 10 µM throughout. The TGI in the assay on NCI/ADR-RES ovarian, in the assay with OVCAR-8 ovarian, in the assay with RPMI-8226 leukemia and with SR leukemia was greater than 10 µM throughout.

As to `O=C(N=S(NC(=O)c1ccccc1)C(Cl)(Cl)Cl)c1ccccc1` (stereo not drawn), the TGI with A498 renal was 76.2 µM; in the assay on HCC-2998 colon, greater than 57.3 µM; with HL-60(TB) leukemia, 13.7 µM; with HOP-92 NSCLC, greater than 100 µM; in the assay on M14 melanoma it was 30.7 µM; with MDA-MB-231 breast it was greater than 100 µM. The TGI in the assay with NCI/ADR-RES ovarian is greater than 51.9 µM; in the assay on OVCAR-8 ovarian, 38.8 µM; in the assay with RPMI-8226 leukemia, greater than 100 µM; in the assay on SR leukemia, greater than 73.4 µM.

Take `CCC(NC(C)c1ccccc1)C(O)c1ccc(OCc2ccccc2)c(OCc2ccccc2)c1` (stereo not drawn): the TGI with A498 renal came out at 39.1 µM; in the assay with HCC-2998 colon it was 6.49 µM; in the assay on HL-60(TB) leukemia, 30.2 µM; with HOP-92 NSCLC, 16.7 µM; with M14 melanoma it was 16.3 µM; in the assay with MDA-MB-231 breast, 21.2 µM. Also, the TGI is 30.6 µM in the assay with NCI/ADR-RES ovarian, 30.1 µM with OVCAR-8 ovarian, 10.7 µM in the assay on RPMI-8226 leukemia and 5.58 µM with SR leukemia.

Turning to `C=CCOC(=O)/C(=C\c1ccc(OC)c(OC)c1)c1ccc(OC)c(OC)c1`, the TGI was greater than 100 µM in the assay on A498 renal; greater than 100 µM in the assay on HCC-2998 colon; 40.3 µM with HL-60(TB) leukemia; greater than 100 µM in the assay on HOP-92 NSCLC; greater than 100 µM in the assay with M14 melanoma; greater than 100 µM in the assay on MDA-MB-231 breast. Moreover, the TGI in the assay with NCI/ADR-RES ovarian was greater than 100 µM; in the assay with OVCAR-8 ovarian, greater than 100 µM; with RPMI-8226 leukemia, 47.6 µM; in the assay on SR leukemia, 72.3 µM.

As for `COC(=O)c1c2n(c3ccccc13)C[C@H]1OC(C)(C)O[C@@H]21`, the TGI with A498 renal, with HCC-2998 colon, in the assay with HL-60(TB) leukemia, in the assay with HOP-92 NSCLC, in the assay on M14 melanoma and in the assay with MDA-MB-231 breast was greater than 100 µM in each case. Moreover, the TGI in the assay with NCI/ADR-RES ovarian, with OVCAR-8 ovarian, in the assay with RPMI-8226 leukemia and in the assay with SR leukemia was greater than 100 µM each time.

For the molecule `COC(=O)c1ccc2c(O)c(O)ccc2c1`, the TGI is 47.7 µM in the assay on A498 renal; 29.6 µM in the assay on HCC-2998 colon; 5.06 µM in the assay on HL-60(TB) leukemia; 33.6 µM with HOP-92 NSCLC; 31 µM in the assay on M14 melanoma; 15.4 µM in the assay with MDA-MB-231 breast. Besides, the TGI is 48.1 µM in the assay with NCI/ADR-RES ovarian, 37.2 µM in the assay on OVCAR-8 ovarian, 61.2 µM with RPMI-8226 leukemia and 7.06 µM in the assay on SR leukemia.

As for `CC1=C2C(=O)c3ccccc3C(=O)[C@H]2[C@H]2CCO[C@H]2O1`, the TGI in the assay with A498 renal was greater than 100 µM; in the assay on HCC-2998 colon it was 48.1 µM; in the assay on HL-60(TB) leukemia, 61.1 µM; in the assay on HOP-92 NSCLC it was 42.3 µM; with M14 melanoma, 40.2 µM; in the assay with MDA-MB-231 breast it was 51.7 µM. Further, the TGI in the assay on NCI/ADR-RES ovarian is 67 µM; in the assay on OVCAR-8 ovarian it was 45.2 µM; in the assay with RPMI-8226 leukemia, 70.4 µM; with SR leukemia it was greater than 100 µM.

In the case of `Cc1cc(=O)[nH]c(NN2C(Cl)C(=O)C2c2ccc(Cl)cc2)n1` (stereo not drawn), the TGI amounted to 53.6 µM in the assay on A498 renal; 32.1 µM in the assay with HCC-2998 colon; 12.7 µM in the assay with HL-60(TB) leukemia; 27.7 µM in the assay with HOP-92 NSCLC; 28.9 µM in the assay with M14 melanoma; 72 µM in the assay with MDA-MB-231 breast. The TGI was 54.9 µM in the assay on NCI/ADR-RES ovarian, 56.5 µM in the assay on OVCAR-8 ovarian, 33.1 µM in the assay on RPMI-8226 leukemia and 6.22 µM with SR leukemia.
